Results from PubChem BioAssay AID250 (DTP/NCI, 2004).
Values joined by “and” are separate entries in the source; they are usually repeats but may differ in a detail not shown here. Equal entries are not always repeated. Inconclusive results and toxic doses are left out. Rule for the calls: active = survival T/C of 150% or more; inactive = T/C below 125% in these data.

System: BDF1 mice, L1210 leukemia sc, survival T/C
Test: NCI In Vivo Anticancer Drug Screen. Data for tumor model L1210 Leukemia (subcutaneous) in B6D2F1 (BDF1) mice
Settings: higher = longer survival
Outline: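 Tumors were transplanted into mice, the animals were treated with compound, survival or tumor size was then measured, and treated values were divided by vehicle-control values.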

Measured: T/C

CNC=O
inactive: endpoint: median survival time, dose: 112.0 mg/kg/injection, schedule: Q01DX Z (sc), vehicle: saline 100 % of control | endpoint: median survival time, dose: 187.0 mg/kg/injection, schedule: Q01DX Z (sc), vehicle: saline 104 % of control | endpoint: median survival time, dose: 311.0 mg/kg/injection, schedule: Q01DX Z (sc), vehicle: saline 116 % of control

COC(=O)Nc1nc2ccc(C(=O)c3cccs3)cc2[nH]1
inactive: endpoint: median survival time, dose: 50.0 mg/kg/injection, schedule: Q04DX003 (ip), vehicle: other 118 % of control
active: endpoint: median survival time, dose: 70.0 mg/kg/injection, schedule: Q04DX003 (iv), vehicle: other 161 % of control | endpoint: median survival time, dose: 100.0 mg/kg/injection, schedule: Q04DX003 (iv), vehicle: other 151 % of control

C[n+]1c2cc(N)ccc2cc2ccc(N)cc21
inactive: endpoint: median survival time, dose: 23.0 mg/kg/injection, schedule: Q01DX Z (sc), vehicle: water 90 % of control and 100 % of control

C[C@]12C=CC(=O)C=C1CC[C@@H]1[C@@H]2CC[C@]2(C)OC(=O)CC[C@@H]12
inactive: endpoint: median survival time, dose: 23.0 mg/kg/injection, schedule: Q01DX Z (sc), vehicle: methylcellulose (MC) 100 % of control | endpoint: median survival time, dose: 39.0 mg/kg/injection, schedule: Q01DX Z (sc), vehicle: methylcellulose (MC) 100 % of control | endpoint: median survival time, dose: 65.0 mg/kg/injection, schedule: Q01DX Z (sc), vehicle: methylcellulose (MC) 100 % of control | endpoint: median survival time, dose: 180.0 mg/kg/injection, schedule: Q01DX Z (sc), vehicle: methylcellulose (MC) 100 % of control | endpoint: median survival time, dose: 300.0 mg/kg/injection, schedule: Q01DX Z (sc), vehicle: methylcellulose (MC) 100 % of control | endpoint: median survival time, dose: 500.0 mg/kg/injection, schedule: Q01DX Z (sc), vehicle: methylcellulose (MC) 100 % of control

CC(=O)OCC1OC(n2ccc(N)nc2=O)C(OC(C)=O)C1OC(C)=O (stereo unspecified)
active: endpoint: median survival time, dose: 20.0 mg/kg/injection, schedule: Q01DX Z (oral), vehicle: carboxymethylcellulose (CMC) 220 % of control | endpoint: median survival time, dose: 20.0 mg/kg/injection, schedule: Q01DX Z (sc), vehicle: carboxymethylcellulose (CMC) 290 % of control | endpoint: median survival time, dose: 40.0 mg/kg/injection, schedule: Q01DX Z (oral), vehicle: carboxymethylcellulose (CMC) 255 % of control | endpoint: median survival time, dose: 40.0 mg/kg/injection, schedule: Q01DX Z (sc), vehicle: carboxymethylcellulose (CMC) 360 % of control | endpoint: median survival time, dose: 80.0 mg/kg/injection, schedule: Q01DX Z (oral), vehicle: carboxymethylcellulose (CMC) 270 % of control | endpoint: median survival time, dose: 80.0 mg/kg/injection, schedule: Q01DX Z (sc), vehicle: carboxymethylcellulose (CMC) 360 % of control | endpoint: median survival time, dose: 160.0 mg/kg/injection, schedule: Q01DX Z (oral), vehicle: carboxymethylcellulose (CMC) 260 % of control | endpoint: median survival time, dose: 160.0 mg/kg/injection, schedule: Q01DX Z (sc), vehicle: carboxymethylcellulose (CMC) 225 % of control | endpoint: median survival time, dose: 320.0 mg/kg/injection, schedule: Q01DX Z (oral), vehicle: carboxymethylcellulose (CMC) 320 % of control

O=C1CN(CCN2CC(=O)NC(=O)C2)CC(=O)N1
inactive: endpoint: median survival time, dose: 12.5 mg/kg/injection, schedule: Q01DX009 (ip), vehicle: steriod suspending solution 115 % of control | endpoint: median survival time, dose: 12.5 mg/kg/injection, schedule: Q01DX009 (sc), vehicle: steriod suspending solution 110 % of control | endpoint: median survival time, dose: 25.0 mg/kg/injection, schedule: Q01DX009 (ip), vehicle: steriod suspending solution 120 % of control | endpoint: median survival time, dose: 25.0 mg/kg/injection, schedule: Q01DX009 (sc), vehicle: steriod suspending solution 100 % of control | endpoint: median survival time, dose: 39.0 mg/kg/injection, schedule: Q03HX024 (sc), vehicle: Klucel (hydroxypropylcellulose) (HPC) 120 % of control | endpoint: median survival time, dose: 65.0 mg/kg/injection, schedule: Q03HX024 (sc), vehicle: Klucel (hydroxypropylcellulose) (HPC) 120 % of control | endpoint: median survival time, dose: 100.0 mg/kg/injection, schedule: Q01DX009 (sc), vehicle: steriod suspending solution 105 % of control and 120 % of control | endpoint: median survival time, dose: 100.0 mg/kg/injection, schedule: Q04DX003 (ip), vehicle: steriod suspending solution 105 % of control | endpoint: median survival time, dose: 100.0 mg/kg/injection, schedule: Q04DX003 (sc), vehicle: steriod suspending solution 100 % of control and 110 % of control | endpoint: median survival time, dose: 200.0 mg/kg/injection, schedule: Q01DX009 (ip), vehicle: steriod suspending solution 100 % of control | endpoint: median survival time, dose: 200.0 mg/kg/injection, schedule: Q01DX009 (sc), vehicle: steriod suspending solution 90 % of control | endpoint: median survival time, dose: 200.0 mg/kg/injection, schedule: Q04DX003 (ip), vehicle: steriod suspending solution 100 % of control | endpoint: median survival time, dose: 200.0 mg/kg/injection, schedule: Q04DX003 (sc), vehicle: steriod suspending solution 105 % of control and 115 % of control | endpoint: median survival time, dose: 300.0 mg/kg/injection, schedule: Q01DX009 (sc), vehicle: Klucel (hydroxypropylcellulose) (HPC) 120 % of control | endpoint: median survival time, dose: 400.0 mg/kg/injection, schedule: Q04DX003 (sc), vehicle: steriod suspending solution 100 % of control | endpoint: median survival time, dose: 500.0 mg/kg/injection, schedule: Q01DX009 (sc), vehicle: Klucel (hydroxypropylcellulose) (HPC) 120 % of control | endpoint: median survival time, dose: 800.0 mg/kg/injection, schedule: Q04DX003 (sc), vehicle: steriod suspending solution 100 % of control and 120 % of control
active: endpoint: median survival time, dose: 8.4 mg/kg/injection, schedule: Q03HX024 (sc), vehicle: Klucel (hydroxypropylcellulose) (HPC) 160 % of control | endpoint: median survival time, dose: 23.0 mg/kg/injection, schedule: Q03HX024 (sc), vehicle: Klucel (hydroxypropylcellulose) (HPC) 165 % of control | endpoint: median survival time, dose: 100.0 mg/kg/injection, schedule: Q01DX009 (ip), vehicle: steriod suspending solution 165 % of control

O=C(NC(CO)C(=O)O)C(Cl)Cl (stereo unspecified)
inactive: endpoint: median survival time, dose: 138.8 mg/kg/injection, schedule: Q01DX Z (sc), vehicle: water 100 % of control | endpoint: median survival time, dose: 300.0 mg/kg/injection, schedule: Q01DX Z (sc), vehicle: water 100 % of control | endpoint: median survival time, dose: 500.0 mg/kg/injection, schedule: Q01DX Z (sc), vehicle: water 100 % of control

COc1ccc2c(Nc3ccc(NS(C)(=O)=O)cc3)c3ccccc3nc2c1
inactive: endpoint: mean survival time, dose: 6.25 mg/kg/injection, schedule: Q01DX009 (sc), vehicle: saline 109 % of control

COc1ccc2[nH]c3c(C)c4ccncc4c(C)c3c2c1
inactive: endpoint: median survival time, dose: 39.0 mg/kg/injection, schedule: Q01DX Z (sc), vehicle: saline 100 % of control | endpoint: median survival time, dose: 65.0 mg/kg/injection, schedule: Q01DX Z (sc), vehicle: saline 100 % of control | endpoint: median survival time, dose: 108.0 mg/kg/injection, schedule: Q01DX Z (sc), vehicle: saline 112 % of control | endpoint: median survival time, dose: 180.0 mg/kg/injection, schedule: Q01DX Z (sc), vehicle: saline 116 % of control | endpoint: median survival time, dose: 300.0 mg/kg/injection, schedule: Q01DX Z (sc), vehicle: saline 116 % of control
